Reference: paper PMC6479881 (Molecules, 2019)

Molecular target: T1, Enterococcus faecalis thymidylate synthase (EfTS) (Enterococcus faecalis, UniProt Q834R3)
T1 construct: gene thyA
T1 sequence (Q834R3 1-315): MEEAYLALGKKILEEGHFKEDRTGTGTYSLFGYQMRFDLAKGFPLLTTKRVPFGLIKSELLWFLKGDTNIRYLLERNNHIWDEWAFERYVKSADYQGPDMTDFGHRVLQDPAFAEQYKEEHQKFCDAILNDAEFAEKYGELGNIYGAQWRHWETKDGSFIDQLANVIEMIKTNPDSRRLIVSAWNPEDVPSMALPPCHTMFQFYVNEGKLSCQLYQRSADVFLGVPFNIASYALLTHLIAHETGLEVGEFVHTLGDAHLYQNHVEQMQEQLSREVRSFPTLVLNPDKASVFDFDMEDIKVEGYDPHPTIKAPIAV
Experiment: crystal structure at […] Å; spectrophotometric enzyme inhibition assay (IC50 […], Ki calculated)
Type: biochemical

With O=c1[nH]c(=O)n([C@H]2C[C@H](O)[C@@H](COP(=O)(O)O)O2)cc1F [FdUMP, 5-fluoro-2′-deoxyuridine-5′-monophosphate] the Ki was 74 nM.
